ChEMBL document CHEMBL1681651, “A broad spectrum anticancer nucleoside with selective toxicity against human colon cells in vitro” (2011)

Key:
Format in all cases: functional
[1] = tested on: CAKI-1; assay: Growth inhibition of human Caki1 cells assessed as cell growth at 10 uM after 48 hrs by SRB assay; details: CAKI-1, 48 h, read-out: Activity
[2] = tested on: LOX IMVI; assay: Growth inhibition of human LOXIMVI cells assessed as cell growth at 10 uM after 48 hrs by SRB assay; details: read-out: Activity
[3] = tested on: SR; assay: Growth inhibition of human SR cells assessed as cell growth at 10 uM after 48 hrs by SRB assay; details: read-out: Activity
[4] = tested on: SN12C; assay: Growth inhibition of human SN12C cells assessed as cell growth at 10 uM after 48 hrs by SRB assay; details: read-out: Activity
[5] = tested on: OVCAR-3; assay: Growth inhibition of human OVCAR3 cells assessed as cell growth at 10 uM after 48 hrs by SRB assay; details: OVCAR-3, 48 h, read-out: Activity
[6] = tested on: T47D; assay: Growth inhibition of human T47D cells assessed as cell growth at 10 uM after 48 hrs by SRB assay; details: read-out: Activity
[7] = tested on: RXF 393; assay: Growth inhibition of human RXF393 cells assessed as cell growth at 10 uM after 48 hrs by SRB assay; details: RXF 393, 48 h, read-out: Activity
[8] = tested on: SF-539; assay: Growth inhibition of human SF539 cells assessed as cell growth at 10 uM after 48 hrs by SRB assay; details: SF-539, 48 h, read-out: Activity
[9] = Growth inhibition of human Hs 578T cells assessed as cell growth at 10 uM after 48 hrs by SRB assay; details: read-out: Activity
[10] = tested on: HCT-15; assay: Growth inhibition of human HCT15 cells after 48 hrs by […] growth inhibition assay; details: HCT-15, 48 h
[11] = tested on: SF-539; assay: Growth inhibition of human SF539 cells assessed as cell growth at 1 uM after 48 hrs by SRB assay; details: SF-539, 48 h, read-out: Activity
[12] = tested on: TK-10; assay: Growth inhibition of human TK10 cells assessed as cell growth at 100 uM after 48 hrs by SRB assay; details: TK-10, 48 h, read-out: Activity
[13] = tested on: LOX IMVI; assay: Growth inhibition of human LOXIMVI cells assessed as cell growth at 1 mM after 48 hrs by SRB assay; details: read-out: Activity
[14] = tested on: MCF7; assay: Growth inhibition of human MCF7 cells assessed as cell growth at 100 uM after 48 hrs by SRB assay; details: MCF7, 48 h, read-out: Activity
[15] = tested on: ACHN; assay: Growth inhibition of human ACHN cells assessed as cell growth at 1 mM after 48 hrs by SRB assay; details: read-out: Activity
[16] = tested on: SK-MEL-28; assay: Growth inhibition of human SK-MEL-28 cells after 48 hrs by […] growth inhibition assay; details: SK-MEL-28, 48 h
[17] = tested on: A549; assay: Growth inhibition of human A549 cells assessed as cell growth at 0.1 uM after 48 hrs by SRB assay; details: A549, 48 h, read-out: Activity
[18] = tested on: TK-10; assay: Growth inhibition of human TK10 cells assessed as cell growth at 1 mM after 48 hrs by SRB assay; details: TK-10, 48 h, read-out: Activity
[19] = tested on: A498; assay: Growth inhibition of human A498 cells assessed as cell growth at 0.1 uM after 48 hrs by SRB assay; details: A498, 48 h, read-out: Activity
[20] = tested on: MCF7; assay: Growth inhibition of human MCF7 cells after 48 hrs by […] growth inhibition assay; details: MCF7, 48 h
[21] = tested on: OVCAR-3; assay: Growth inhibition of human OVCAR3 cells assessed as cell growth at 100 uM after 48 hrs by SRB assay; details: OVCAR-3, 48 h, read-out: Activity
[22] = tested on: 786-0; assay: Growth inhibition of human 786-0 cells assessed as cell growth at 1 uM after 48 hrs by SRB assay; details: 786-0, 48 h, read-out: Activity
[23] = tested on: NCI-H23; assay: Growth inhibition of human NCI-H23 cells assessed as cell growth at 1 uM after 48 hrs by SRB assay; details: NCI-H23, 48 h, read-out: Activity
[24] = tested on: SN12C; assay: Growth inhibition of human SN12C cells assessed as cell growth at 1 uM after 48 hrs by SRB assay; details: read-out: Activity
[25] = tested on: BT-549; assay: Growth inhibition of human BT549 cells assessed as cell growth at 10 uM after 48 hrs by SRB assay; details: BT-549, 48 h, read-out: Activity
[26] = tested on: SF-268; assay: Growth inhibition of human SF268 cells assessed as cell growth at 0.1 uM after 48 hrs by SRB assay; details: SF-268, 48 h, read-out: Activity
[27] = tested on: T47D; assay: Growth inhibition of human T47D cells after 48 hrs by […] growth inhibition assay
[28] = tested on: HOP-92; assay: Growth inhibition of human HOP92 cells assessed as cell growth at 1 uM after 48 hrs by SRB assay; details: HOP-92, 48 h, read-out: Activity
[29] = tested on: NCI-H226; assay: Growth inhibition of human NCI-H226 cells assessed as cell growth at 1 uM after 48 hrs by SRB assay; details: NCI-H226, 48 h, read-out: Activity
[30] = tested on: BT-549; assay: Growth inhibition of human BT549 cells assessed as cell growth at 1 uM after 48 hrs by SRB assay; details: BT-549, 48 h, read-out: Activity
[31] = tested on: MDA-MB-468; assay: Growth inhibition of human MDA-MB-468 cells after 48 hrs by […] growth inhibition assay; details: MDA-MB-468, 48 h
[32] = tested on: HCC 2998; assay: Growth inhibition of human HCC2998 cells assessed as cell growth at 10 uM after 48 hrs by SRB assay; details: HCC 2998, 48 h, read-out: Activity
[33] = tested on: OVCAR-5; assay: Growth inhibition of human OVCAR5 cells assessed as cell growth at 1 mM after 48 hrs by SRB assay; details: OVCAR-5, 48 h, read-out: Activity
[34] = tested on: SF-268; assay: Growth inhibition of human SF268 cells after 48 hrs by […] growth inhibition assay; details: SF-268, 48 h
[35] = tested on: NCI-H23; assay: Growth inhibition of human NCI-H23 cells assessed as cell growth at 1 mM after 48 hrs by SRB assay; details: NCI-H23, 48 h, read-out: Activity
[36] = read-out: LC50 (the source's name)
[37] = read-out: pLC50 (the source's name) (converted)

CNC(=O)OC[C@H]1O[C@@H](n2cnc3c(NC(=O)Nc4ccccc4)ncnc32)[C@H](O[Si](C)(C)C(C)(C)C)[C@@H]1O[Si](C)(C)C(C)(C)C
growth at 10 µM [1]: 106% | growth at 10 µM [2]: 87.4% | growth at 10 µM [3]: 77.9% | growth at 10 µM [4]: 101% | growth at 10 µM [5]: 107% | growth at 10 µM [6]: 116% | growth at 10 µM [7]: 94.2% | growth at 10 µM [8]: 97.1% | growth at 10 µM [9]: 97.6%

CNC(=O)NC[C@H]1O[C@@H](n2cnc3c(NC(=O)Nc4ccccc4)ncnc32)[C@H](O[Si](C)(C)C(C)(C)C)[C@@H]1O[Si](C)(C)C(C)(C)C
growth at 10 µM [1]: 96% | GI50 ([10]; read-out: GI50): 3.62 µM | CC50 [10, 36]: > 100 µM | TGI ([10]; read-out: TGI): > 100 µM | GI50 ([10]; read-out: pGI50 (converted)): 3.63 µM | CC50 [10, 37]: > 100 µM | TGI ([10]; read-out: pTGI): > 100 µM | growth at 10 µM [2]: 98% | growth at 1 µM [11]: 100% | growth at 100 µM [12]: 14% | growth at 1000 µM [13]: -77% | growth at 100 µM [14]: 6% | growth at 1000 µM [15]: 2% | CC50 [16, 36]: 28.3 µM | growth at 0.1 µM [17]: 99% | growth at 1000 µM [18]: -2% | growth at 0.1 µM [19]: 92% | growth at 10 µM [4]: 98% | growth at 10 µM [5]: 113% | GI50 ([20]; read-out: GI50): 2.69 µM | CC50 [20, 36]: > 100 µM | TGI ([20]; read-out: TGI): 19.3 µM | GI50 ([20]; read-out: pGI50 (converted)): 2.69 µM | CC50 [20, 37]: > 100 µM | TGI ([20]; read-out: pTGI (converted)): 19.5 µM | growth at 100 µM [21]: -39% | growth at 1 µM [22]: 113% | growth at 10 µM [6]: 92% | growth at 1 µM [23]: 106% | growth at 10 µM [7]: 111% | growth at 1 µM [24]: 100% | growth at 10 µM [25]: 103% | growth at 10 µM [8]: 91% | growth at 0.1 µM [26]: 104% | GI50 ([27]; read-out: GI50): 2.87 µM | CC50 [27, 36]: > 100 µM | TGI ([27]; read-out: TGI): 10.3 µM | GI50 ([27]; read-out: pGI50 (converted)): 2.88 µM | CC50 [27, 37]: > 100 µM | TGI ([27]; read-out: pTGI (converted)): 10.2 µM | growth at 1 µM [28]: 80% | growth at 1 µM [29]: 106% | growth at 1 µM [30]: 112% | GI50 ([31]; read-out: GI50): 3.35 µM | CC50 [31, 36]: > 100 µM | TGI ([31]; read-out: TGI): 13.9 µM | GI50 ([31]; read-out: pGI50 (converted)): 3.39 µM | CC50 [31, 37]: > 100 µM | TGI ([31]; read-out: pTGI (converted)): 13.8 µM | growth at 10 µM [32]: 106% | growth at 1000 µM [33]: -43% | GI50 ([34]; read-out: GI50): 3.58 µM | CC50 [34, 36]: > 100 µM | TGI ([34]; read-out: TGI): 14 µM | GI50 ([34]; read-out: pGI50 (converted)): 3.55 µM | CC50 [34, 37]: > 100 µM | TGI ([34]; read-out: pTGI (converted)): 14.1 µM | growth at 1000 µM [35]: -53%

CCOC(=O)C[C@H]1[C@@H](O[Si](C)(C)C(C)(C)C)[C@H](n2cnc3c(NC(=O)Nc4ccccc4)ncnc32)O[C@@H]1CNC(=O)NC
growth at 10 µM [1]: 99% | GI50 ([10]; read-out: GI50): 8.5 µM | CC50 [10, 36]: > 100 µM | TGI ([10]; read-out: TGI): > 100 µM | GI50 ([10]; read-out: pGI50 (converted)): 8.51 µM | CC50 [10, 37]: > 100 µM | TGI ([10]; read-out: pTGI): > 100 µM | growth at 10 µM [2]: 93% | growth at 1 µM [11]: 91% | growth at 10 µM [3]: 85% | growth at 100 µM [12]: 59% | growth at 1000 µM [13]: 4% | growth at 100 µM [14]: 16% | growth at 1000 µM [15]: 35% | GI50 ([16]; read-out: GI50): 6.85 µM | CC50 [16, 36]: 48.7 µM | TGI ([16]; read-out: TGI): 20.2 µM | GI50 ([16]; read-out: pGI50 (converted)): 6.92 µM | CC50 [16, 37]: > 49 µM | TGI ([16]; read-out: pTGI (converted)): 20.4 µM | growth at 0.1 µM [17]: 102% | growth at 1000 µM [18]: -38% | growth at 0.1 µM [19]: 95% | growth at 10 µM [4]: 103% | growth at 10 µM [5]: 116% | GI50 ([20]; read-out: GI50): 3.42 µM | CC50 [20, 36]: > 100 µM | TGI ([20]; read-out: TGI): 45.1 µM | GI50 ([20]; read-out: pGI50 (converted)): 3.39 µM | CC50 [20, 37]: > 100 µM | TGI ([20]; read-out: pTGI (converted)): 44.7 µM | growth at 100 µM [21]: 16% | growth at 1 µM [22]: 83% | growth at 10 µM [6]: 73% | growth at 1 µM [23]: 100% | growth at 10 µM [7]: 92% | growth at 1 µM [24]: 101% | growth at 10 µM [25]: 110% | growth at 10 µM [8]: 103% | growth at 0.1 µM [26]: 102% | growth at 10 µM [9]: 90% | GI50 ([27]; read-out: GI50): 2.55 µM | CC50 [27, 36]: > 100 µM | TGI ([27]; read-out: TGI): > 100 µM | GI50 ([27]; read-out: pGI50 (converted)): 2.57 µM | CC50 [27, 37]: > 100 µM | TGI ([27]; read-out: pTGI (converted)): > 100 µM | growth at 1 µM [28]: -1% | growth at 1 µM [29]: 105% | growth at 1 µM [30]: 109% | CC50 [31, 36]: > 100 µM | growth at 10 µM [32]: 93% | growth at 1000 µM [33]: 27% | GI50 ([34]; read-out: GI50): 6.53 µM | CC50 [34, 36]: 92.5 µM | TGI ([34]; read-out: TGI): 27 µM | GI50 ([34]; read-out: pGI50 (converted)): 6.61 µM | CC50 [34, 37]: 93.3 µM | TGI ([34]; read-out: pTGI (converted)): 26.9 µM | growth at 1000 µM [35]: 36%
